The nature of this data set: in vitro. As to conditions: human, liver microsomes.

As usually defined, the half-life is the time needed for the level to fall by half in the phase considered. Read a high half-life as slow loss. With `CNC(=O)c1cc(Oc2ccc(NC(=O)Nc3ccc(Cl)c(C(F)(F)F)c3)cc2)ccn1` [SORAFENIB], the half-life at 0.5 µM is 5.6 h.
